Measurements published in patent publication US20190022016A1, “COMPOSITIONS FOR SUSTAINED RELEASE OF ANTI-GLAUCOMA AGENTS TO CONTROL INTRAOCULAR PRESSURE” (The Johns Hopkins University, priority 2016, published 2019).

Tests used:
[1] = systemic; cited from earlier work
[2] = In vitro drug release from microparticles in PBS; format: physicochemical; details: for duration of in vitro drug release: PBS pH 7.4, 37° C., infinite sink, PEG3-PSA microparticles, 2% PEG; for drug released during the first 6 days / release over the initial 24 hours: from PEG3-PSA, infinite sink conditions
Method: PEG3-PSA is a polyanhydride polymer that undergoes surface erosion to deliver continuous drug release and has been previously used for ocular delivery. Particle disappearance parallels drug release due to surface erosion. Particles were suspended in phosphate buffered saline (PBS, pH 7.4) at 5 mg/mL and incubated at 37° C. on a rotating platform (140 RPM). At selected time points, supernatant was collected by centrifugation (8,000×g for 5 min) and particles were resuspended in fresh PBS. Drug content was measured by spectraphotometer.

Row | duration of in vitro drug release [2] [days] | drug released during the first 6 days [2] [%] | release over the initial 24 hours [2] [%] | Structure (SMILES) | IOP reduction [1] [%]
1 | – | – | – | CC(=O)Nc1nnc(S(N)(=O)=O)s1 [acetazolamide] | 30
2 | 12 | 80 | 12 | CCN[C@H]1CN(CCCOC)S(=O)(=O)c2sc(S(N)(=O)=O)cc21 [brinzolamide] | –
3 | 12 | 80 | 18 | CCN[C@H]1C[C@H](C)S(=O)(=O)c2sc(S(N)(=O)=O)cc21 [dorzolamide] | –
